{"source": "patent US20110046056A1", "about": "“APOA-1 PEPTIDE MIMETICS” (priority 2007, published 2011)", "molecules": {"B1": {"name": "CONS[(RS)12H3^13] (peptide)", "peptide": "Ac-PVLDEFREKLNE[12H3]LEALKQKLK", "modifications": "not fully specified (C-terminus); printed as PVLDEFREKLNE-(RS)12H3-LEALKQKLK; reading uncertain"}}, "key": {"[1]": {"test_system": "human red blood cells", "experiment": "Red blood cell (RBC) lysis assay", "type": "cell-based", "description": "The RBC lysis assay has been described previously (Kurtz, M. B. et al. (1994); Wang, J. et al., PNAS 104 (18), 7612-7616 (2007)). Basically, human erythrocytes are collected in a vacutainer tube with EDTA from human donors. Two ml of the freshly drawn whole blood is added to 6 ml of sterile saline and gently mixed then centrifuged at 5° C. for 5 minutes at 2000 rpm. The supernatant is discarded and the human red blood cells are resuspended with 6 ml of sterile saline and centrifuged again at 5° C. for 5 minutes at 2000 rpm. This procedure is repeated 2 times. A three percent suspension of the washed red blood cells is prepared by adding 0.3 ml of the washed red blood cells to 9.7 ml of sterile saline. The final concentration of test peptide ranging 160-2.5 (or 150-2.3) μM in 100 μl sterile saline containing 3.2% Me2SO is prepared in 96-well MICROTEST U-bottom plates (BECTON DICKINSON, BD-353227). The RBC lysis is initiated by addition of 5 μl of 3% washed human red blood cell suspension to the each well in the plates. The plates are incubated overnight at room temperature, then centrifuged at 2000 rpm for 5 minutes and read immediately. Hemolysis of red blood cells is indicated by complete or partial clearing (lysis) of the supernatants with either no or a rough RBC pellet in the bottom of the wells. […]"}, "[2]": {"biological_target": "T1, ABCA1 cholesterol transporter protein (Mus musculus, UniProt P41233)", "T1 construct": "endogenous in cells", "T1 sequence (P41233 whole entry)": "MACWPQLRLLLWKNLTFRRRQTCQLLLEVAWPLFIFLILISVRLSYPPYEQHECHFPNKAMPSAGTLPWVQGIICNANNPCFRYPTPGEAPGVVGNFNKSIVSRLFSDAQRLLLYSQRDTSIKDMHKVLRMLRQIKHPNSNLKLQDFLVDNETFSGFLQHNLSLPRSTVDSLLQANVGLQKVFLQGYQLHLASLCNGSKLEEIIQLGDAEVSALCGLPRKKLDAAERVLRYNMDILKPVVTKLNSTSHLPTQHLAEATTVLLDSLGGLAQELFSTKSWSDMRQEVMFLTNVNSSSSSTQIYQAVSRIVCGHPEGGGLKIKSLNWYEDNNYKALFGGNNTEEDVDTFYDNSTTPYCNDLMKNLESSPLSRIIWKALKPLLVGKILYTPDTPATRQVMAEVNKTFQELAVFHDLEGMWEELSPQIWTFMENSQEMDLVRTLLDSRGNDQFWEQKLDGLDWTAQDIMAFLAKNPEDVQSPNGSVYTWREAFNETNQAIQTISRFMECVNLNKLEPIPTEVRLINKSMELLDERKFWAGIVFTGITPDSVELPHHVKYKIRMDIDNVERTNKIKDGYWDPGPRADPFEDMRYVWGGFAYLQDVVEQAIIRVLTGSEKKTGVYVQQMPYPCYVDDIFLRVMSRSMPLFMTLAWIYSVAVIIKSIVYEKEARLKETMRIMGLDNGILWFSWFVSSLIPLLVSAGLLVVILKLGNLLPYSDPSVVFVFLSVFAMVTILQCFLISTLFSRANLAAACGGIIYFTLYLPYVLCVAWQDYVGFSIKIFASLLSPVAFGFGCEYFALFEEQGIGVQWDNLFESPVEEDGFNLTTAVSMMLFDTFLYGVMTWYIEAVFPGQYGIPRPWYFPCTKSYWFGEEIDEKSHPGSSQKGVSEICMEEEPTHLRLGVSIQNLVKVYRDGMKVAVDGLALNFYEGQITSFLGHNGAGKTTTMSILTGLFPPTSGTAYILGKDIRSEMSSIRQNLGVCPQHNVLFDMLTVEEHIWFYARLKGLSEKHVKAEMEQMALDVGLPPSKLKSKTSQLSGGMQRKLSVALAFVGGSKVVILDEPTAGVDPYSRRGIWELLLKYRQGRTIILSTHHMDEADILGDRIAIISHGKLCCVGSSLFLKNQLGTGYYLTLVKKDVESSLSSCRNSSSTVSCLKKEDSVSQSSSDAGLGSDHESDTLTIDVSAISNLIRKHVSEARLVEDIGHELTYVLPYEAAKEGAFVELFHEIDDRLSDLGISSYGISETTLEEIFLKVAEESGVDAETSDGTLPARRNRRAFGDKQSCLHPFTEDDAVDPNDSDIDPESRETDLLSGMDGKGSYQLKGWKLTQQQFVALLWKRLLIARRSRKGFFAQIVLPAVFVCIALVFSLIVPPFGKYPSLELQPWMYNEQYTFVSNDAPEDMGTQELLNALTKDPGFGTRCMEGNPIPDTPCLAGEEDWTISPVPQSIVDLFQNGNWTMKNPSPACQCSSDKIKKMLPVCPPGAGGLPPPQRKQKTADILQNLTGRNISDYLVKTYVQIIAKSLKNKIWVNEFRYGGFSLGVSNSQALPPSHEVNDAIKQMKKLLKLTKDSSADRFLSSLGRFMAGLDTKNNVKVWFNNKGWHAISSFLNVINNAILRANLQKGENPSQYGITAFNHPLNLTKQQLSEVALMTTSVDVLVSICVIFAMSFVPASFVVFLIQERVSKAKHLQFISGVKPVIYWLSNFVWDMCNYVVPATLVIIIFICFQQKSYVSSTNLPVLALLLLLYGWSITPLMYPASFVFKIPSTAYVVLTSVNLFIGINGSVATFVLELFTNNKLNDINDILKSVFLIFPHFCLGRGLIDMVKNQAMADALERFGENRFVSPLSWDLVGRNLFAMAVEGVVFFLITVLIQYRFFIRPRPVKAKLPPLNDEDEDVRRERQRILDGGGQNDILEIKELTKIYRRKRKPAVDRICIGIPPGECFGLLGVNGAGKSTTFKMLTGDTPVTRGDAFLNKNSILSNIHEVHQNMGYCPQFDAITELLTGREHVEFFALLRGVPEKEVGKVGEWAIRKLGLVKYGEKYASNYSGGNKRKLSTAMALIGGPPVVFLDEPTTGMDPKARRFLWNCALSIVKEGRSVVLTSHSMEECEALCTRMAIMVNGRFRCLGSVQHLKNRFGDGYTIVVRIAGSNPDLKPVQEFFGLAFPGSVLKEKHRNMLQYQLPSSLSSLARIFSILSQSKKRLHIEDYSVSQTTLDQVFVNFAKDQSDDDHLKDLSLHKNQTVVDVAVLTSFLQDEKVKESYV", "experiment": "ABCA1-dependent cholesterol efflux from RAW mouse macrophage cells (in vitro RCT assay)", "type": "cell-based", "details": "for EC50: read-out: EC50 in the cholesterol efflux assay (RCT in vitro assay)", "outline": "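RAW macrophages labelled with ^3H-cholesterol (5 μCi/ml) 24 h, equilibrated overnight serum-free, then given eight-point peptide titrations 24 h with or without 150 μM CPT-cAMP. Percent efflux = medium counts/(medium + lysate); plain-medium efflux subtracted from cAMP value gives ABCA1-dependent efflux, fitted for EC50.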"}, "[3]": {"experiment": "Lipid (liposome) solubilization, turbidimetric method", "type": "biochemical", "details": "for IC50: read-out: IC50 in the liposome solubilization assay", "description": "As noted above, the other important parameter was phospholipid solubilization. A turbidimetric method is used to determine the solubilization capacity of peptides of the present invention. First, a three-fold serial titration of the peptide is prepared in a polypropylene v-shaped 96-well plate. The eight-point titration is done in phosphate-buffered saline (PBS, pH 7.5) or DMSO from a starting concentration that allows for addition to an optically-clear bottomed assay plate in <100 μl aliquots to yield a starting concentration of 500 μM in 200 μl final well volume. PBS is then added to each well to bring the total volume to 100 μl. Any bubbles in the wells must be dispersed to avoid erroneous results. Next, from a turbid but homogeneous emulsion of dimyristoyl phosphatidylcholine at 0.5 mg/ml in PBS, 100 μl is added to each well in the assay plate, the plate is inserted into the NEPHELOSTAR (BMG LABTECH INSTRUMENTS), and readings are taken immediately and every 15 minutes over 2 hours.\nA true 0-point value is calculated by averaging the readings of the wells with phospholipid but no peptide. For each peptide concentration, a percent decrease in turbidity is calculated by subtracting the 0-point value from the corresponding 30 and 120 minute readings and dividing by that 0-point value. Finally the EC50 values for both time points are determined using PRISM software (Table 2)."}, "[4]": {"test_system": "atheroma in ApoE-deficient mice", "experiment": "Atheroma volume in ApoE-deficient mice by magnetic resonance imaging", "type": "in vivo, mouse", "details": "20 mg per kg subcutaneously once daily; after 5 weeks of treatment; compared to vehicle-treated apoE-deficient mice; MRI", "description": "The ultimate goal of developing these mimetic peptides was for the acute and chronic treatment of atherosclerotic lesions in human patients."}, "[5]": {"biological_target": "T2, ATP-binding cassette transporter A1 (ABCA1) (mouse, UniProt P41233 1-2261)", "T2 sequence (P41233 whole entry)": "as above", "experiment": "cell-based or functional assay"}, "[6]": {"biological_target": "T2, ATP-binding cassette transporter A1 …", "experiment": "cell-based or functional assay", "remark": "listed apart in the source"}}, "note": "*1 amine or outer side, *2 acyl side, *3 side chain or, on linkers, in order; H or OH if unused. Where a SMILES comes first, the peptide text is derived from it. Bridges are numbered along the chain shown (N, C = ends). Where no end group is shown, it is not given here. [ ]: non-standard residue; d: D form. dNle(6-ylidene) = O=C([C@@H](CCCC=[*:3])N[*:1])[*:2]; X2 = O=C([C@@H](CCCCC=[*:3])N[*:1])[*:2]; X3 = O=C([C@H](CCCCCC=[*:3])N[*:1])[*:2]; Ala(5-hexenyl) = C=CCCCCC[C@H](N)C(=O)O; dNle(6-vinyl) = C=CCCCC[C@@H](N)C(=O)O; R5 = C=CCCC[C@@](C)(N)C(=O)O; 12H3 = not defined here"}
{"molecule": "O=C(N[C@H](CO)[C@H](O)c1ccc([N+](=O)[O-])cc1)C(Cl)Cl", "note": "[Chloramphenicol]", "values": [{"measurement": "minimum lytic concentration (MLC)", "setting": "[1]", "result": "> 64", "unit": "µg/mL"}]}
{"molecule": "C=CCCCCC[C@H](NC(=O)[C@H](CCC(=O)O)NC(=O)[C@H](CC(=O)O)NC(=O)[C@H](CC(C)C)NC(=O)[C@@H](NC(=O)[C@@H]1CCCN1C(C)=O)C(C)C)C(=O)N[C@@H](CCCNC(=N)N)C(=O)N[C@@H](CCC(=O)O)C(=O)N[C@@H](CCCCN)C(=O)N[C@@H](CC(C)C)C(=O)N[C@@H](CC(N)=O)C(=O)N[C@@H](CCC(=O)O)C(=O)N[C@H](CCCCC=C)C(=O)N[C@@H](CC(C)C)C(=O)N[C@@H](CCC(=O)O)C(=O)N[C@@H](C)C(=O)N[C@@H](CC(C)C)C(=O)N[C@@H](CCCCN)C(=O)N[C@@H](CCC(N)=O)C(=O)N[C@@H](CCCCN)C(=O)N[C@@H](CC(C)C)C(=O)N[C@@H](CCCCN)C(N)=O", "note": "[SEQ ID NO 10, PVLDES7HREKLNER6HLEALKQKLK] (Ac-PVLDE[Ala(5-hexenyl)]REKLNE[dNle(6-vinyl)]LEALKQKLK-NH2; C-terminus assumed)", "values": [{"measurement": "EC50", "setting": "[2]", "result": 1200, "unit": "nM"}, {"measurement": "IC50", "setting": "[3]", "result": 44000, "unit": "nM"}]}
{"molecule": "CC(=O)N1CCC[C@H]1C(=O)N[C@H](C(=O)N[C@@H](CC(C)C)C(=O)N[C@@H](CC(=O)O)C(=O)N[C@@H](CCC(=O)O)C(=O)N[C@@H](Cc1ccccc1)C(=O)N[C@@H](CCCNC(=N)N)C(=O)N[C@@H](CCC(=O)O)C(=O)N[C@@H]1CCCC=CCCC[C@H](C(=O)N[C@@H](CC(C)C)C(=O)N[C@@H](CCC(=O)O)C(=O)N[C@@H](C)C(=O)N[C@@H](CC(C)C)C(=O)N[C@@H](CCCCN)C(=O)N[C@@H](CCC(N)=O)C(=O)N[C@@H](CCCCN)C(=O)N[C@@H](CC(C)C)C(=O)N[C@@H](CCCCN)C(N)=O)NC(=O)[C@H](CCC(=O)O)NC(=O)[C@H](CC(N)=O)NC(=O)[C@H](CC(C)C)NC1=O)C(C)C", "note": "[SEQ ID NO 12, PVLDEFRER5HLNER5HLEALKQKLK (CYCLO R5H9-R5H13)] (Ac-PVLDEFRE[dNle(6-ylidene)]LNE[dNle(6-ylidene)]LEALKQKLK-NH2; staple 9-13; C-terminus assumed)", "values": [{"measurement": "EC50", "setting": "[2]", "result": 10000, "unit": "nM"}, {"measurement": "IC50", "setting": "[3]", "result": 60000, "unit": "nM"}]}
{"molecule": "CC(=O)N1CCC[C@H]1C(=O)N[C@H](C(=O)N[C@@H](CC(C)C)C(=O)N[C@@H](CC(=O)O)C(=O)N[C@@H](CCC(=O)O)C(=O)N[C@@H]1CCCCC=CCCCCC[C@@H](C(=O)N[C@@H](CC(C)C)C(=O)N[C@@H](CCC(=O)O)C(=O)N[C@@H](C)C(=O)N[C@@H](CC(C)C)C(=O)N[C@@H](CCCCN)C(=O)N[C@@H](CCC(N)=O)C(=O)N[C@@H](CCCCN)C(=O)N[C@@H](CC(C)C)C(=O)N[C@@H](CCCCN)C(N)=O)NC(=O)[C@H](CCC(=O)O)NC(=O)[C@H](CC(N)=O)NC(=O)[C@H](CC(C)C)NC(=O)[C@H](CCCCN)NC(=O)[C@H](CCC(=O)O)NC(=O)[C@H](CCCNC(=N)N)NC1=O)C(C)C", "note": "[SEQ ID NO 14, PVLDER6HREKLNES7HLEALKQKLK (CYCLO R6H6-S7H13)] (Ac-PVLDE[X2]REKLNE[X3]LEALKQKLK-NH2; staple 6-13; C-terminus assumed)", "values": [{"measurement": "EC50", "setting": "[2]", "result": 2000, "unit": "nM"}, {"measurement": "IC50", "setting": "[3]", "result": 43000, "unit": "nM"}]}
{"molecule": "C=CCCCCC[C@H](NC(=O)[C@H](CCC(=O)O)NC(=O)[C@H](CC(N)=O)NC(=O)[C@H](CC(C)C)NC(=O)[C@H](CCCCN)NC(=O)[C@H](CCC(=O)O)NC(=O)[C@H](CCCNC(=N)N)NC(=O)[C@H](CCCCCC=C)NC(=O)[C@H](CCC(=O)O)NC(=O)[C@H](CC(=O)O)NC(=O)[C@H](CC(C)C)NC(=O)[C@@H](NC(=O)[C@@H]1CCCN1C(C)=O)C(C)C)C(=O)N[C@@H](CC(C)C)C(=O)N[C@@H](CCC(=O)O)C(=O)N[C@@H](C)C(=O)N[C@@H](CC(C)C)C(=O)N[C@@H](CCCCN)C(=O)N[C@@H](CCC(N)=O)C(=O)N[C@@H](CCCCN)C(=O)N[C@@H](CC(C)C)C(=O)N[C@@H](CCCCN)C(N)=O", "note": "[SEQ ID NO 43, PVLDES7HREKLNES7HLEALKQKLK] (Ac-PVLDE[Ala(5-hexenyl)]REKLNE[Ala(5-hexenyl)]LEALKQKLK-NH2; C-terminus assumed)", "values": [{"measurement": "atheroma volume", "setting": "[4]", "result": "significant reduction"}, {"measurement": "EC50", "setting": "[2]", "result": 300, "unit": "nM"}]}
{"molecule": "Ac-PVLDEFREKLNEELEALKQKLK-NH2 [SEQ ID NO 1, reference compound]", "values": [{"measurement": "activity in the cholesterol efflux / in vitro RCT assay, in words", "setting": "[2]", "result": "inactive"}, {"measurement": "lipid binding / ability to clear liposome turbidity, in words", "setting": "[3]", "result": "inactive"}]}
{"molecule": "PVLDEFREKLNEELEALKQKLK [compound 1]", "values": [{"measurement": "ABCA1-DEPENDENT CHOLESTEROL EFFLUX EC50", "setting": "[2]; RAW cells, cAMP-stimulated minus plain medium efflux", "result": "NOT ACTIVE"}, {"measurement": "LIPID SOLUBILIZATION IC50", "setting": "[3]; Measured at 2 h", "result": "NOT ACTIVE"}]}
{"molecule": "PVLDEFRER5MELNER5MELEALKQKLK (Ac-PVLDEFRE[R5]LNE[R5]LEALKQKLK; not fully specified (C-terminus); bridges not given here) [SEQ ID NO 16]", "values": [{"measurement": "activity in the cholesterol efflux / in vitro RCT assay, in words", "setting": "[2]", "result": "very low to no activity"}, {"measurement": "lipid binding / ability to clear liposome turbidity, in words", "setting": "[3]", "result": "good lipid binding"}]}
{"molecule": "PVLDEFRES5HLNES5HLEALKQKLK (Ac-PVLDEFRE[S5H]LNE[S5H]LEALKQKLK; not fully specified (C-terminus)) [SEQ ID NO 15]", "values": [{"measurement": "activity in the cholesterol efflux / in vitro RCT assay, in words", "setting": "[2]", "result": "very low to no activity"}, {"measurement": "lipid binding / ability to clear liposome turbidity, in words", "setting": "[3]", "result": "good lipid binding"}]}
{"molecule": "Ac-PVLDEFREKLNE[Ala(5-hexenyl)]LEALKQKLK", "note": "[CONS[S7H^13]]", "values": [{"measurement": "ABCA1-dependent cholesterol efflux EC50", "setting": "[5]", "result": 2000, "unit": "nM"}, {"measurement": "EC50 in the RCT in vitro assay", "setting": "[6]", "result": 1600, "unit": "nM"}, {"measurement": "EC50 in the cholesterol efflux assay", "setting": "[6]", "result": 2800, "unit": "nM"}]}
{"molecule": "Ac-PVLDE[Ala(5-hexenyl)]REKLNE[dNle(6-vinyl)]LEALKQKLK", "note": "[S7H [F6-E13]R6H OPEN]", "values": [{"measurement": "ABCA1-dependent cholesterol efflux EC50", "setting": "[5]", "result": 1300, "unit": "nM"}, {"measurement": "EC50 in the cholesterol efflux assay", "setting": "[6]", "result": 1200, "unit": "nM"}]}
{"molecule": "B1", "values": [{"measurement": "EC50 in the RCT in vitro assay", "setting": "[6]", "result": "200 to 400", "unit": "nM"}]}
